Counter-ions that a name gives are not always drawn. Like-named read-outs stand apart in the source and are kept apart here.
Legend:
[1] = target: Topoisomerase II (Homo sapiens, UniProt P11388); assay: Topoisomerase II screening kit
[2] = target: VEGFR2 (KDR) (Homo sapiens, UniProt P35968); assay: biochemical
[3] = system: MCF-7 cells; assay: Cytotoxicity using MTT assay, MCF-7; type: cell-based; conditions: for IC50: Homo sapiens, MCF7, 48 h, 48 h, read-out: IC50 cytotoxicity against MCF-7; for cell death: MCF-7 cells
Experimental: (§1) Breast cancer (MCF-7) and liver cancer (HepG2) cell lines were collected from National Cancer Institute in Cairo and grown in “RPMI-1640 medium L-Glutamine. The cells were grown in 10% fetal bovine serum (FBS) and 1% penicillin-streptomycin using standard tissue culture protocol. On the second day, cells were grown in triplicate on a 96-well plate at a density of 5 × 10^4 cells and incubated with the investigated compounds at “0.01, 0.1, 1, 10, and 100 µM”. Cell viabilioty was measured with MTT solution. The absorbance was measured using an ELISA microplate reader. After comparing the treated groups to the control, the IC50 values were recorded to indicate the level of viability following previous work.

[4] = system: HepG2 cells; assay: Cytotoxicity using MTT assay, HepG2; type: cell-based; conditions: read-out: IC50 cytotoxicity against HepG2
Experimental: as §1

Sequence of Topoisomerase II (P11388 whole entry): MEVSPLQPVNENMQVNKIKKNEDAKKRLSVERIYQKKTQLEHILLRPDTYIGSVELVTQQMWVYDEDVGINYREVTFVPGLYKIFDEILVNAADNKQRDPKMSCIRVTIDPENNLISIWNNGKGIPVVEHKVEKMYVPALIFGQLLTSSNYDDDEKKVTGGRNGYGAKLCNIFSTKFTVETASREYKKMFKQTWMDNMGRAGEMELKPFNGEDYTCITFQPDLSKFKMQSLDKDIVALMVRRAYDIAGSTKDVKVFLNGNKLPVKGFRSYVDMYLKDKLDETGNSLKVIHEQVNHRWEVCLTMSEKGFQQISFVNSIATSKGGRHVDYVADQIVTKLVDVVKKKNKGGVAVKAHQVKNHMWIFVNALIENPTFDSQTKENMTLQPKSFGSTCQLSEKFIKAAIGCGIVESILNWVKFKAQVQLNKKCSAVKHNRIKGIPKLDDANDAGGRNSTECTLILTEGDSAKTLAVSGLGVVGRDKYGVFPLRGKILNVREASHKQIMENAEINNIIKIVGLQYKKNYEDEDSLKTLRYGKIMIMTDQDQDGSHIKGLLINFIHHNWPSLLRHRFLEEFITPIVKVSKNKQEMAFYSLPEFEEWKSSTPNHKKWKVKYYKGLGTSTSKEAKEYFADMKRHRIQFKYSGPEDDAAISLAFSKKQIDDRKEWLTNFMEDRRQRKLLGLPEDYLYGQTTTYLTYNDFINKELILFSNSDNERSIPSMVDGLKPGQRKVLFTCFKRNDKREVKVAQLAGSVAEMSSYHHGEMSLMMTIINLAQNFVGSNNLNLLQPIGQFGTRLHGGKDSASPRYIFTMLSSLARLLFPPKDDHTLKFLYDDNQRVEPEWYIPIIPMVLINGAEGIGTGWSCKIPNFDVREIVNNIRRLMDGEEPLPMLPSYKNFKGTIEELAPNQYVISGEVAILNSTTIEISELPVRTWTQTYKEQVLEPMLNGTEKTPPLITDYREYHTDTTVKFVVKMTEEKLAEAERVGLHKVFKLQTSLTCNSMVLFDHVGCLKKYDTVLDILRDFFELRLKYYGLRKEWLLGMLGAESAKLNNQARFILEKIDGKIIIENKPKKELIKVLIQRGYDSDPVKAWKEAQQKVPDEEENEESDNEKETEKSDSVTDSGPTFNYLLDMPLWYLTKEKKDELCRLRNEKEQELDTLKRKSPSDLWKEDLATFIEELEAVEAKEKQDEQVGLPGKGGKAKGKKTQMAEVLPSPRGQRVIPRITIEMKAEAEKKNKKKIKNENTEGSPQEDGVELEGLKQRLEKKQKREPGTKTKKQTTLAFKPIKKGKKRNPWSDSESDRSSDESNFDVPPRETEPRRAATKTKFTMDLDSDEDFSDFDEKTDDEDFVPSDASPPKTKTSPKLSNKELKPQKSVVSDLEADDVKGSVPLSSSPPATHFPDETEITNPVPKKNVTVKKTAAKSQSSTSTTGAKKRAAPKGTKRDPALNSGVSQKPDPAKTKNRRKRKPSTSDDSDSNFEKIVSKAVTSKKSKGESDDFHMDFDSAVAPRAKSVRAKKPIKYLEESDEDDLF
Sequence of VEGFR2 (KDR) (P35968 20-1356): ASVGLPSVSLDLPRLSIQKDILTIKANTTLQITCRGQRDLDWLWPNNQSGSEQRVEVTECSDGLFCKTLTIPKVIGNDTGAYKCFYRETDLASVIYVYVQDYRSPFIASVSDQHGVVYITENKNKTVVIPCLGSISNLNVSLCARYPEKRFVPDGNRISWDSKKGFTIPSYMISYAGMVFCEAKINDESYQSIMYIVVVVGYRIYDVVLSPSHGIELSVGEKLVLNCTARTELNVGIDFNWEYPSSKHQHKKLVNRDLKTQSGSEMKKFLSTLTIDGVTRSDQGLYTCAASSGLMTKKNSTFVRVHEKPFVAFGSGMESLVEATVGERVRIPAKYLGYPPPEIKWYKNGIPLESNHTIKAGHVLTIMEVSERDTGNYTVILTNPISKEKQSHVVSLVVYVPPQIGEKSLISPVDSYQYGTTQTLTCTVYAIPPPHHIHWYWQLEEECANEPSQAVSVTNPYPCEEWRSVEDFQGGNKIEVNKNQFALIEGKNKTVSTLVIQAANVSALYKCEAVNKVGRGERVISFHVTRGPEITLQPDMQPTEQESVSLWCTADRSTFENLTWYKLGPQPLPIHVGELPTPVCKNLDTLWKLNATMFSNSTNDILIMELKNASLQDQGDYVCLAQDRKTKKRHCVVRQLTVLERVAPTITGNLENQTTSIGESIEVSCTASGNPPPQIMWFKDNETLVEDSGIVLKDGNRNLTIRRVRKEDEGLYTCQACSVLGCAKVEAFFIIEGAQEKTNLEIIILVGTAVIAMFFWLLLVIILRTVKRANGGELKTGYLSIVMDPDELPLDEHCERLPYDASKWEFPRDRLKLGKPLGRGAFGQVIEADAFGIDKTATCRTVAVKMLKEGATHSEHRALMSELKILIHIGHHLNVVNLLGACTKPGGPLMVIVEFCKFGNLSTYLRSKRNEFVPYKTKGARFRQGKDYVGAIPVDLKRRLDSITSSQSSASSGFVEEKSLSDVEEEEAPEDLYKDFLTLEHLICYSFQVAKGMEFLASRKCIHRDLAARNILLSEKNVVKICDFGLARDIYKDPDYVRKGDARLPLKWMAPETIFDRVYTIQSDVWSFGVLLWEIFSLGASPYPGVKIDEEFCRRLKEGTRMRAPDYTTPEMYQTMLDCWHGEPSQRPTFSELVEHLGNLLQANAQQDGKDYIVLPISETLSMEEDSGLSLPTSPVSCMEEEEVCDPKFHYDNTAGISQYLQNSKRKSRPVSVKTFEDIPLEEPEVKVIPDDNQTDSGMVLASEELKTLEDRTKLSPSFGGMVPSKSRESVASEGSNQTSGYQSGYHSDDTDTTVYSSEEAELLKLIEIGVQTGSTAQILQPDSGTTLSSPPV

SMILES	melting point	further results
COC(=O)CNC(=O)c1cc2ccccc2oc1=O (as salt: hydrochloride) [4a, Methyl [(2-oxo-2H-chromene-3-carbonyl)-amino] ethanoate]	173 to 175 °C	
COC(=O)C[C@H](NC(=O)c1cc2ccccc2oc1=O)C(=O)OC (as salt: succinate) [4g, Dimethyl 2-[(2-oxo-2H-chromene-3-carbonyl)-amino] succinate]	69 to 71 °C	
COC(=O)[C@H](C)NC(=O)c1cc2ccccc2oc1=O [4b, Methyl 2-[(2-oxo-2H-chromene-3-carbonyl)-amino] propanoate]	104 to 106 °C	
COC(=O)CCNC(=O)c1cc2ccccc2oc1=O [4c, Methyl 3-[(2-oxo-2H-chromene-3-carbonyl)-amino] propanoate]	135 to 137 °C	
COC(=O)C(CO)NC(=O)c1cc2ccccc2oc1=O (stereo not shown) [4d, Methyl 3-hydroxy-2-[(2-oxo-2H-chromene-3-carbonyl)-amino]-propanoate]	177 to 179 °C	
COC(=O)C(NC(=O)c1cc2ccccc2oc1=O)C(C)C (stereo not shown) [4e, Methyl 3-methyl-2-[(2-oxo-2H-chromene-3-carbonyl)-amino] butanoate]	75 to 77 °C	
COC(=O)[C@H](CC(C)C)NC(=O)c1cc2ccccc2oc1=O [4f, Methyl 4-methyl-2-[(2-oxo-2H-chromene-3-carbonyl)-amino] pentan-oate]	95 to 97 °C	
COC(=O)CC[C@H](NC(=O)c1cc2ccccc2oc1=O)C(=O)OC [4h, Dimethyl 2-[(2-oxo-2H-chromene-3-carbonyl)-amino] pentanedioate]	64 to 66 °C	
COC(=O)[C@H](CCSC)NC(=O)c1cc2ccccc2oc1=O [4i, Methyl 4-methylsulfanyl-2-[(2-oxo-2H-chromene-3-carbonyl)-amino] butanoate]	81 to 83 °C	
COC(=O)C(NC(=O)c1cc2ccccc2oc1=O)c1ccccc1 (stereo not shown) [4j, Methyl [(2-oxo-2H-chromene-3-carbonyl)-amino]-phenylacetate]	189 to 192 °C	
COC(=O)C(Cc1ccc(O)cc1)NC(=O)c1cc2ccccc2oc1=O (stereo not shown) [4k, Methyl 3-(4-hydroxyphenyl)-2-[(2-oxo-2H-chromene-3-carbonyl)-amino]-propanoate]		IC50 [1]: 4.1 ± 0.64 µM; IC50 [2]: 23.6 ± 1.19 µM; IC50 [3]: 4.98 µM; cell death [3]: 97.82%; IC50 ([4]; 48 h): 9.44 µM; IC50 ([4]; Homo sapiens, HepG2, 48 h): 9.4 µM
COC(=O)C(Cc1c[nH]c2ccccc12)NC(=O)c1cc2ccccc2oc1=O (stereo not shown) [4l, Methyl 3-(1H-Indol-3-yl)-2-[(2-oxo-2H-chromene-3-carbonyl)-amino]-propanoate]	138 to 139 °C	
O=C(O)CCNC(=O)c1cc2ccccc2oc1=O [5c, 3-[(2-Oxo-2H-chromene-3-carbonyl)-amino]-propanoic acid]	195 to 197 °C	
CC(C)C(NC(=O)c1cc2ccccc2oc1=O)C(=O)O (stereo not shown) [5e, 3-Methyl-2-[(2-oxo-2H-chromene-3-carbonyl)-amino] butanoic acid]	210 to 212 °C	
CSCCC(NC(=O)c1cc2ccccc2oc1=O)C(=O)O (stereo not shown) [5i, 4-Methylsulfanyl-2-[(2-oxo-2H-chromene-3-carbonyl)-amino]-butanoic acid]	108 to 109 °C	
COC(=O)CCNC(=O)CCNC(=O)c1cc2ccccc2oc1=O [6a, Methyl 3-{3-[(2-oxo-2H-chromene-3-carbonyl)-amino]-propionylamino} propanoate]	127 to 128 °C	
COC(=O)C(NC(=O)CCNC(=O)c1cc2ccccc2oc1=O)C(C)C (stereo not shown) [6b, Methyl 3-Methyl-2-{3-[(2-oxo-2H-chromene-3-carbonyl)-amino]-propionyl-amino}-butanoate]	101 to 103 °C	
COC(=O)C(CCSC)NC(=O)CCNC(=O)c1cc2ccccc2oc1=O (stereo not shown) [6c, Methyl 4-methylsulfanyl-2-{3-[(2-oxo-2H-chromene-3-carbonyl)-amino]-propionylamino}-butanoate]		IC50 [1]: 8.6 ± 0.15 µM; IC50 [2]: 34.2 ± 1.06 µM; IC50 [3]: 5.85 µM; cell death [3]: 97.35%; IC50 ([4]; 48 h): 33.8 µM; IC50 ([4]; Homo sapiens, HepG2, 48 h): 33.9 µM

More lines, main results first:

melting point	SMILES	further results
149 to 151 °C	COC(=O)CCNC(=O)C(NC(=O)c1cc2ccccc2oc1=O)C(C)C (stereo not shown) [7a, Methyl 3-{3-methyl-2-[(2-oxo-2H-chromene-3-carbonyl)-amino]-butyryl-amino}-propanoate]	
97 to 99 °C	COC(=O)C(NC(=O)C(NC(=O)c1cc2ccccc2oc1=O)C(C)C)C(C)C (stereo not shown) [7b, Methyl 3-Methyl-2-{3-methyl-2-[(2-oxo-2H-chromene-3-carbonyl)-amino]-butyrylamino}-butanoate]	
100 to 101 °C	COC(=O)[C@H](CCSC)NC(=O)[C@@H](NC(=O)c1cc2ccccc2oc1=O)C(C)C [7c, Methyl 2-{3-methyl-2-[(2-oxo-2H-chromene-3-carbonyl)-amino]-butyrylamino} -4-methylsulfanyl butanoate]	
104 to 105 °C	COC(=O)CCNC(=O)C(CCSC)NC(=O)c1cc2ccccc2oc1=O (stereo not shown) [8a, Methyl 3-{4-methylsulfanyl-2-[(2-oxo-2H-chromene-3-carbonyl)-amino]-butyrylamino}-propanoate]	
98 to 99 °C	COC(=O)C(NC(=O)C(CCSC)NC(=O)c1cc2ccccc2oc1=O)C(C)C (stereo not shown) [8b, Methyl 3-methyl-2-{4-methylsulfanyl-2-[(2-oxo-2H-chromene-3-carbonyl)-amino]-butyrylamino}-butanoate]	
109 to 111 °C	COC(=O)C(CCSC)NC(=O)C(CCSC)NC(=O)c1cc2ccccc2oc1=O (stereo not shown) [8c, Methyl 4-methylsulfanyl-2-{4-methylsulfanyl-2-[(2-oxo-2H-chromene-3-carbonyl)-amino]-butyrylamino}-butanoate]	

From PMC9737644, “Facile Synthesis of Some Coumarin Derivatives and Their Cytotoxicity through VEGFR2 and Topoisomerase II Inhibition” (Molecules, 2022)
